Series [1] is described as follows: Stress at 40° C./75% relative humidity for 15 days. The following applies: 40° C./75% RH. It counts as physicochemical. The procedure: HCl form C was stressed at 40° C./75% relative humidity for 15 days.
Form A was stressed at 40° C./75% for 15 days. […] Solvent was not detected.

Series [2] is described as follows: Humidity stress using crystalline material (HCl form C). In kind it is physicochemical. The note with it: 8 days. How it is done:
Approximately 25 mg of […] […] HCl form C material and were stressed for 8 days. All samples remained as […] HCl form C material.

Series [3] in a line: Dynamic Vapour Sorption (DVS) hygroscopicity. It counts as physicochemical. The note with it: for total weight gain between 40-80% RH: DVS isothermal plot, 25° C. How it is done: Dynamic Vapour Sorption (DVS) was performed using a Hiden Analytical Instruments IGAsorp Vapour Sorption Balance. Approximately 30 mg of sample was placed into a wire-mesh vapour sorption balance pan, loaded into the IGAsorp vapour sorption balance and held at 25° C.±0.1° C. The sample was subjected to a step profile from o to 90% RH at 10% increments, followed by desorption from 90% RH to 0% RH at 10% increments. The equilibrium criterion was set to 99.0% step completion within a minimum of 60 minutes and a maximum of 5 hours for each increment. The weight change during the sorption cycle was monitored, allowing for the hygroscopic nature of the sample to be determined. The data collection interval was in seconds.

Series [4] is described as follows: Humidity stress using amorphous material. In kind it is physicochemical. The note with it: 6 days. From the text: X-ray amorphous material generated from freeze drying was exposed to various controlled humidity conditions for 6 days before analysis by XRPD. Both samples remained as amorphous material.
Series [5] can be described thus: Thermal stressing of amorphous Q702 HCl salt. It counts as physicochemical. The following applies: 50° C., 7 days, under nitrogen in a sealed vial.
A short description of series [6]: Pharmacokinetic study in plasma after oral administration. The note with it: 30 mg/kg; for AUC(0-t) / Cmax / Tmax / half-life: vehicle water. It counts as in vivo, male SD rats. The procedure: In this example, pharmacokinetic studies are performed using the form A of the HCl-salt of Q702 and the free base (FB) thereof in plasma, following oral administration of such form A and free base to male SD rats.
Appropriate amounts of the form A of Q702 HCl or of free base were accurately weighed and mixed with appropriate volume of vehicle (water) to get a clear solution or uniform suspension. Male SD rats were dosed with a nominal dose of 30 mg/kg body weight. After dosing, 0.2 mL blood was collected per time point at time points o h, 0.083 h, 0.25 h, 0.5 h, 1 h, 2 h, 4 h, 8 h, 12 h, and 24 h. For such blood collection, blood was collected from the jugular vein or other suitable site of each animal into pre-chilled plastic microcentrifuged tubes containing 5 μL of 1000 IU heparin Na as anti-coagulant. Blood samples were processed for plasma by centrifugation at approximately 4° C., 3200 g for ten minutes. Plasma was collected and transferred into pre-labelled polypropylene tubes, snap-frozen over dry ice and kept at −60° C. or lower until LC-MS/MS-analysis was performed. LC-MS/MS methodology was performed using a calibration curve with at least 6 non-zero calibration standards.
Plasma concentrations versus time were plotted and analysed by non-compartmental approaches using the Phoenix WinNonlin 6.3 software program. Related pharmacokinetic parameters were calculated according to dosing route, e. g.

Series [7] can be described thus: Long term stability of Form A of Q702 HCl salt. In kind it is physicochemical. How it is done:
Form A of […] HCl salt was tested for long term stability to 24 months.

Series [8] is described as follows: Aqueous solubility of crystalline salts of Q702 (slurried overnight in deionised water, HPLC). The following applies: crystalline salts slurried overnight in deionised water (pH = 6.8); for pH of solution: solution pH measured.
Protocol: (§1) Solubility was measured by a) solubility estimation by aliquot addition and b) HPLC: • a) Solubility estimation by aliquot-addition
(§2) Samples were held at ambient temperature for 18 hours to maximize the chance of precipitation. Any recoverable solids were analyzed by XRPD.
(§3) The HPLC method used to determine equilibrium solubility in a variety of solvents is outlined. […] A phenomenex Kinetex column was used with a particle size of 2.6 μm.
Series [9] is described as follows: Solubility estimation by aliquot addition in solvents. In kind it is physicochemical. The following applies: organic solvent or mixture, thermodynamic from solid. How it is done:
The aliquot volumes were typically 100-1000 μL. Complete dissolution of the test material was determined by visual inspection. The solubility was estimated from these experiments based on the total solvent used to provide complete dissolution. […] From the infrared (IR) transmission data of the sample vials, dissolution and precipitation events were recorded as the point of complete transmission of IR and the onset of turbidity by IR respectively. […] Any recoverable solids were analyzed by XRPD. […] HCl salt was estimated in 9 solvent systems using the aliquot addition method.

A short description of a further series: physchem. The note with it: pH 6.8, water, thermodynamic from solid.

Protocol for physchem: as §1, §2, §3

`CCCn1cc(OCC(F)(F)F)c(C(=O)Nc2ccc(Oc3ccnc4cc(OC)c(OC)cc34)cn2)n1.Cl` [HCl form C]: in series [1], the XRPD after stress entry is listed as “remained as HCl salt form C”. Further, the “% Weight change” value in series [2] (40° C./75% RH stress) is given as −1.96%; in [2] (75% RH stress) it was −11.05%; in series [2] (98% RH stress), “+2.99%”; in series [2] (98% RH stress, listed as Q702 HCl form C), 2.99%. Further, the weight loss in [2] (40° C./75% RH) is 1.96%; in series [2] (75% RH stress) it was 11.05%. Also, the “total weight gain between 40-80% RH” value in [3] worked out at 0.7 % w/w. The “XRPD analysis of post DVS sample” value in [3] (after DVS analysis) is listed as “no physical change in the sample was detected”. Besides, the “hygroscopicity, European Pharmacopoeia classification” value in [3] (based on DVS weight gain 40-80% RH) is reported as “slightly hygroscopic”.
Take `CCCn1cc(OCC(F)(F)F)c(C(=O)Nc2ccc(Oc3ccnc4cc(OC)c(OC)cc34)cn2)n1.Cl` [amorphous Q702 HCl salt]: the “XRPD after humidity stress” value in series [4] (40° C./75% RH stress) and in series [4] (59% RH stress) was “amorphous” in each case. In addition, the “XRPD after thermal stress” value in series [5] (listed as Amorphous Q702 HCl salt) is listed as “remained amorphous”; in series [5] (listed as amorphous), “amorphous”.
As for `CCCn1cc(OCC(F)(F)F)c(C(=O)Nc2ccc(Oc3ccnc4cc(OC)c(OC)cc34)cn2)n1.Cl` [Q702 HCl form A, N-(5-((6,7-dimethoxyquinolin-4-yl)oxy)pyridin-2-yl)-1-propyl-4-(2,2,2-trifluoroethoxy)-1H-pyrazole-3-carboxamide hydrochloride], the “plasma exposure level higher than that of the free base (mean AUC-values)” value in series [6] (versus Q702 free base) is recorded as 33%. In series [6] (male, SD, rat, plasma), the AUC(0-t) (as a rule, exposure summed from dosing to a finite time, without extrapolation to infinity) turned out to be 430 µg·h/mL; the Cmax – broadly, the highest concentration seen after dosing – is 37 µg/mL; the Tmax (usually the time from dosing to the highest level) was 2.83 h; the half-life (usually the time in which the quantity being followed falls by half) is 10.3 h. In addition, in series [6] (male, SD, rat, plasma, test = form A of HCl-salt, ref = free base of Q702, read-out: relative bioavailability), the bioavailability was 144%. The XRPD after stress entry in series [1] (hydrochloride) is listed as “remained as form A”. For the same compound, in series [3] (hydrochloride), the “total weight gain between 40-80% RH” value came out at 0.5 % w/w. In [7] (25 ± 2° C./60 ± 5% RH, 12 M), the Assay was found to be 94.0%, the Purity is given as 100.0% and the XRPD entry is “Consistent”. Also, in series [7] (25 ± 2° C./60 ± 5% RH, 24 M), the Assay was found to be 94.6%, the Purity was found to be 99.9% and the XRPD entry is “Consistent”. For the same compound, in series [7] (40 ± 2° C./75 ± 5% RH, 6 M), the Assay amounted to 94.8%, the Purity is listed as 99.9% and the XRPD entry was “Consistent”. For the same compound, in series [7] (Initial), the Assay was 95.9%, the Purity is 99.9% and the XRPD result is “Consistent”. Besides, in series [7] (tested to 24 months), the “long term stability (XRPD results)” value is reported as “stable to 24 months”.
Turning to Tosylate, in series [8], the “Aq Solub” value worked out at 0.026 mg/mL and the pH of solution was found to be 4.26.
Take `CCCn1cc(OCC(F)(F)F)c(C(=O)Nc2ccc(Oc3ccnc4cc(OC)c(OC)cc34)cn2)n1.Cl` [Q702 HCl salt, N-(5-((6,7-dimethoxyquinolin-4-yl)oxy)pyridin-2-yl)-1-propyl-4-(2,2,2-trifluoroethoxy)-1H-pyrazole-3-carboxamide hydrochloride]: the solubility (usually how much of the substance goes into solution per volume) in [9] (Acetone, 20° C., read-out: Solubility Range) was < 20 mg/mL; in [9] (Acetonitrile, 20° C., read-out: Solubility Range), < 20 mg/mL; in series [9] (Dichloromethane, 20° C., read-out: Solubility Range) it was 66 to 100 mg/mL; in [9] (Dimethyl sulfoxide, 20° C., read-out: Solubility Range), > 201 mg/mL; in [9] (Ethanol, 20° C., read-out: Solubility Range), 67 to 101 mg/mL; in [9] (Ethyl acetate, 20° C., read-out: Solubility Range), < 20 mg/mL. The solubility was 49 to 66 mg/mL in series [9] (Methanol, 20° C., read-out: Solubility Range); < 20 mg/mL in series [9] (Methyl tert-butyl ether, 20° C., read-out: Solubility Range); < 20 mg/mL in series [9] (Tetrahydrofuran, 20° C., read-out: Solubility Range); > 20 mg/mL in [9] (in four of the 9 solvents at ambient temperature, read-out: solubility); 1.95 mg/mL in “physchem”.
As to `O=C(O)CCC(=O)C(=O)O` [Ketoglutarate], the pH of solution in series [8] was found to be 2.91.
`CCCn1cc(OCC(F)(F)F)c(C(=O)Nc2ccc(Oc3ccnc4cc(OC)c(OC)cc34)cn2)n1` [Q702 free base, N-(5-((6,7-dimethoxyquinolin-4-yl)oxy)pyridin-2-yl)-1-propyl-4-(2,2,2-trifluoroethoxy)-1H-pyrazole-3-carboxamide]: in series [6] (male, SD, rat, plasma), the area under the curve AUC(0-t) is 323 µg·h/mL, the Cmax worked out at 33.8 µg/mL, the Tmax is 3.33 h and the half-life was 10.9 h.
